How the values were obtained:
HeLa cells [1] = test: Transfection of GFP-expressing plasmid DNA in HeLa cells (FCM); format: cell-based; settings: material 0.25-8 μg/well, plasmid DNA 0.5 μg/well, 24 h, compared with Lipofectamine 2000
Protocol: In this experiment, with GFP-expressing plasmid DNA as a reporter gene, a gene transfection efficiency of a cationic lipid analog material in HeLa cells was detected. A specific method was as follows:
HeLa cells were inoculated in a 24-well plate and cultured in an incubator for 12 h; each of different cationic lipid analog materials—(0.25 μg/well to 8 μg/well) was mixed with GFP-expressing plasmid DNA (0.5 μg/well) in 40 μL of a sodium acetate buffer (25 mM, […] resulting mixtures each were allowed to stand for 10 min and then diluted with 460 μL of a Opti-MEM medium to obtain plasmid DNA-loaded cationic lipid analog complex particle solutions; a medium for the HeLa cells in the plate was removed, then the HeLa cells were washed once with PBS, and the complex particle solutions each were added; and the cells were further cultured for 24 h, and then a plasmid DNA transfection efficiency in cells was analyzed by FCM. A commercial gene transfection reagent Lipofectamine 2000 was adopted as a positive control.

HeLa cells [2] = test: Transfection of luciferase-expressing plasmid DNA in HeLa cells; format: cell-based; settings: 24 h, compared with Lipofectamine 2000
Protocol: In this example, with luciferase-expressing plasmid DNA as a reporter gene, a gene transfection efficiency of a cationic lipid analog material in HeLa cells was detected. A specific operation method was as follows: HeLa cells were inoculated in a 96-well plate and cultured in an incubator for 12 h; each of different cationic lipid analog materials was mixed with luciferase-expressing plasmid DNA (0.5 μg) in 40 μL of a sodium acetate buffer (25 mM, pH 5.2), and resulting mixtures each were allowed to stand for 10 min and then diluted with 460 μL of a Opti-MEM medium to obtain plasmid DNA-loaded cationic lipid analog complex particle solutions; a medium for the HeLa cells in the plate was removed, then the HeLa cells were washed once with PBS, and the complex particle solutions each were added in a volume of 125 μL; the cells were further cultured for 24 h, then a resulting culture supernatant was discarded, and the cells were fully lysed; and a substrate was added at 50 μl/well, and an expression level of luciferase was detected by a multi-mode microplate reader.

DC 2.4 cells = test: Transfection of eGFP-expressing mRNA in DC 2.4 cells (FCM and LSCM); format: cell-based, mouse; settings: material 0.25-2 μg/well, mRNA 0.2 μg/well, 24 h, compared with Lipofectamine 2000
Protocol: In this experiment, with eGFP-mRNA as model mRNA, an mRNA transfection efficiency of a cationic lipid analog material in DC 2.4 cells was detected. A specific operation method was as follows:
DC 2.4 cells were inoculated in a 48-well plate and cultured in an incubator for 12 h; each of different cationic lipid analog materials (0.25 μg/well to 2 μg/well) was mixed with eGFP-expressing mRNA (0.2 μg/well) in 20 μL of a sodium acetate buffer (25 mM, pH 5.2), and resulting mixtures each were allowed to stand for 10 min and then diluted with 230 μL of a Opti-MEM medium to obtain mRNA-loaded complex particle solutions; a medium for the DC 2.4 cells in the plate was removed, then the DC 2.4 cells were washed once with PBS, and the complex particle solutions each were added; and the cells were cultured for 24 h, an mRNA transfection efficiency in cells was observed by FCM and LSCM. A commercial gene transfection reagent Lipofectamine 2000 was adopted as a positive control.

Structure (SMILES) | transfection efficiency of GFP-expressing plasmid DNA (positive rate) (HeLa cells [1]) | transfection efficiency of luciferase-expressing plasmid DNA (luciferase expression) (HeLa cells [2]) | mRNA transfection efficiency (eGFP-mRNA) (DC 2.4 cells)
CCCCCCCCCCCCCC(=O)N(CCCCN(C)C)C(C(=O)NCCCCCCNC(=O)C(C(C)C)N(CCCN(C)C)C(=O)CCCCCCCCCCCCC)C(C)C (stereo not shown) [I1R2C14A1] | equivalent to or higher than | equivalent to or higher than | equivalent to or higher than
CCCCCCCCCCCCCCCC(=O)N(CCCN(C)C)C(C(=O)NCCCCCCNC(=O)C(C(C)C)N(CCCN(C)C)C(=O)CCCCCCCCCCCCCCC)C(C)C (stereo not shown) [I1R2C16A1] |  |  | equivalent to or higher than
CCCCCCCC/C=C\CCCCCCCC(=O)N(CCCN(C)C)C(C(=O)NCCCCCCNC(=O)C(C(C)C)N(CCCN(C)C)C(=O)CCCCCCC/C=C\CCCCCCCC)C(C)C (stereo not shown) [I1R2C18-1A1] |  |  | equivalent to or higher than
CCCCC/C=C\C/C=C\CCCCCCCC(=O)N(CCCN(C)C)C(C(=O)NCCCCCCNC(=O)C(C(C)C)N(CCCN(C)C)C(=O)CCCCCCC/C=C\C/C=C\CCCCC)C(C)C (stereo not shown) [I1R2C18-2A1] | equivalent to or higher than |  | equivalent to or higher than
CCCCCCCCCCCCCCCCCC(=O)N(CCCN(C)C)C(C(=O)NCCCCCCNC(=O)C(C(C)C)N(CCCN(C)C)C(=O)CCCCCCCCCCCCCCCCC)C(C)C (stereo not shown) [I1R2C18A1] |  |  | equivalent to or higher than
CCCCCCCCCCCCCC(=O)N(CCC1CCCN1C)C(C(=O)NCCCCCCNC(=O)C(C(C)C)N(CCC1CCCN1C)C(=O)CCCCCCCCCCCCC)C(C)C (stereo not shown) [I1R11C14A1] | equivalent to or higher than | equivalent to or higher than | equivalent to or higher than
CCCCCCCCCCCCCCCC(=O)N(CCC1CCCN1C)C(C(=O)NCCCCCCNC(=O)C(C(C)C)N(CCC1CCCN1C)C(=O)CCCCCCCCCCCCCCC)C(C)C (stereo not shown) [I1R11C16A1] |  |  | equivalent to or higher than
CCCCCCCCCCCCCCCCCC(=O)N(CCC1CCCN1C)C(C(=O)NCCCCCCNC(=O)C(C(C)C)N(CCC1CCCN1C)C(=O)CCCCCCCCCCCCCCCCC)C(C)C (stereo not shown) [I1R11C18A1] |  |  | equivalent to or higher than
CCCCCCCCCCCCCC(=O)N(CCN(C)C)C(C(=O)NCCOCCOCCNC(=O)C(C(C)C)N(CCN(C)C)C(=O)CCCCCCCCCCCCC)C(C)C (stereo not shown) [I2R1C14A1] | equivalent to or higher than | equivalent to or higher than | equivalent to or higher than
CCCCCCCCCCCCCCCC(=O)N(CCN(C)C)C(C(=O)NCCOCCOCCNC(=O)C(C(C)C)N(CCN(C)C)C(=O)CCCCCCCCCCCCCCC)C(C)C (stereo not shown) [I2R1C16A1] | equivalent to or higher than | equivalent to or higher than | equivalent to or higher than
CCCCCCCC/C=C\CCCCCCCC(=O)N(CCN(C)C)C(C(=O)NCCOCCOCCNC(=O)C(C(C)C)N(CCN(C)C)C(=O)CCCCCCC/C=C\CCCCCCCC)C(C)C (stereo not shown) [I2R1C18-1A1] | equivalent to or higher than | equivalent to or higher than | equivalent to or higher than
CCCCC/C=C\C/C=C\CCCCCCCC(=O)N(CCN(C)C)C(C(=O)NCCOCCOCCNC(=O)C(C(C)C)N(CCN(C)C)C(=O)CCCCCCC/C=C\C/C=C\CCCCC)C(C)C (stereo not shown) [I2R1C18-2A1] | equivalent to or higher than |  | 
CCCCCCCCCCCCCC(=O)N(CCCN(C)C)C(C(=O)NCCOCCOCCNC(=O)C(C(C)C)N(CCCN(C)C)C(=O)CCCCCCCCCCCCC)C(C)C (stereo not shown) [I2R2C14A1] | equivalent to or higher than |  | equivalent to or higher than
CCCCCCCCCCCCCC(=O)C(CCCN(CC)CC)C(C(=O)NCCOCCOCCNC(=O)C(C(C)C)N(CCCN(CC)CC)C(=O)CCCCCCCCCCCCC)C(C)C (stereo not shown) [I2R3C14A1] |  |  | equivalent to or higher than
CCCCCCCCCCCCCCCC(=O)C(CCCN(CC)CC)C(C(=O)NCCOCCOCCNC(=O)C(C(C)C)N(CCCN(CC)CC)C(=O)CCCCCCCCCCCCCCC)C(C)C (stereo not shown) [I2R3C16A1] | equivalent to or higher than | equivalent to or higher than | equivalent to or higher than
CCCCCCCCCCCCCCCCCC(=O)C(CCCN(CC)CC)C(C(=O)NCCOCCOCCNC(=O)C(C(C)C)N(CCCN(CC)CC)C(=O)CCCCCCCCCCCCCCCCC)C(C)C (stereo not shown) [I2R3C18A1] | equivalent to or higher than | equivalent to or higher than | equivalent to or higher than
CCCCCCCCCCCCCCN(CCC1CCCN1C)C(C(=O)NCCOCCOCCNC(=O)C(C(C)C)N(CCC1CCCN1C)C(=O)CCCCCCCCCCCCC)C(C)C (stereo not shown) [I2R11C14A1] | equivalent to or higher than |  | equivalent to or higher than
CCCCCCCCCCCCCCCCN(CCC1CCCN1C)C(C(=O)NCCOCCOCCNC(=O)C(C(C)C)N(CCC1CCCN1C)C(=O)CCCCCCCCCCCCCCC)C(C)C (stereo not shown) [I2R11C16A1] | equivalent to or higher than |  | equivalent to or higher than
CCCCCCCC/C=C\CCCCCCCC(=O)N(CCC1CCCN1C)C(C(=O)NCCOCCOCCNC(=O)C(C(C)C)N(CCC1CCCN1C)C(=O)CCCCCCC/C=C\CCCCCCCC)C(C)C (stereo not shown) [I2R11C18-1A1] | equivalent to or higher than |  | equivalent to or higher than
CCCCC/C=C\C/C=C\CCCCCCCC(=O)N(CCC1CCCN1C)C(C(=O)NCCOCCOCCNC(=O)C(C(C)C)N(CCC1CCCN1C)C(=O)CCCCCCC/C=C\C/C=C\CCCCC)C(C)C (stereo not shown) [I2R11C18-2A1] | equivalent to or higher than | equivalent to or higher than | equivalent to or higher than
CCCCCCCCCCCCCCCCCCN(CCC1CCCN1C)C(C(=O)NCCOCCOCCNC(=O)C(C(C)C)N(CCC1CCCN1C)C(=O)CCCCCCCCCCCCCCCCC)C(C)C (stereo not shown) [I2R11C18A1] | equivalent to or higher than |  | equivalent to or higher than

— patent US20230390402A1, “IONIZABLE CATIONIC LIPID ANALOG MATERIAL AND USE THEREOF AS DRUG DELIVERY CARRIER” (GUANGZHOU LIDE BIOMEDICINE TECHNOLOGY CO., LTD., priority 2021, published 2023)
